Test results: ChEMBL document CHEMBL1153581, “Synthesis, antiviral and anticancer activity of some novel thioureas derived from N-(4-nitro-2-phenoxyphenyl)-methanesulfonamide” (Eur J Med Chem, 2009)
In brackets after ≈: the same amount, converted by molar mass.

Test system: Vaccinia virus
Experiment: Antiviral activity against Vaccinia virus infected in human HEL cells assessed as protection against virus-induced cytopathogenicity
Type: functional
Conditions: Orthopoxvirus vaccinia

SMILES	MIC50
CCCNC(=S)Nc1ccc(NS(C)(=O)=O)c(Oc2ccccc2)c1	> 40 µg/mL
CNC(=S)Nc1ccc(NS(C)(=O)=O)c(Oc2ccccc2)c1	100 µg/mL (≈ 285 µM)
CCNC(=S)Nc1ccc(NS(C)(=O)=O)c(Oc2ccccc2)c1	40 µg/mL (≈ 109 µM)
CS(=O)(=O)Nc1ccc(NC(=S)NCCc2ccccc2)cc1Oc1ccccc1	> 8 µg/mL
CS(=O)(=O)Nc1ccc(NC(=S)NC2CCCCC2)cc1Oc1ccccc1	> 8 µg/mL
C=CCNC(=S)Nc1ccc(NS(C)(=O)=O)c(Oc2ccccc2)c1	> 40 µg/mL
CS(=O)(=O)Nc1ccc(NC(=S)NCCc2ccc(Cl)cc2)cc1Oc1ccccc1	> 100 µg/mL
CS(=O)(=O)Nc1ccc(NC(=S)NCc2ccccc2)cc1Oc1ccccc1	> 8 µg/mL
CS(=O)(=O)Nc1ccc(NC(=S)Nc2ccc([N+](=O)[O-])cc2)cc1Oc1ccccc1	8 µg/mL (≈ 17.4 µM)
Nc1nc2c(ncn2COCCO)c(=O)[nH]1 [ACYCLOVIR]	> 250 µg/mL
O=c1[nH]c(=O)n([C@H]2C[C@H](O)[C@@H](CO)O2)cc1/C=C/Br [BRIVUDINE]	2 µg/mL (≈ 6 µM)
Nc1nc2c(ncn2COC(CO)CO)c(=O)[nH]1 [GANCICLOVIR]	100 µg/mL (≈ 392 µM)
NC(=O)c1ncn([C@@H]2O[C@H](CO)[C@@H](O)[C@H]2O)n1 [RIBAVIRIN]	150 µg/mL (≈ 614 µM)
